In patent US11384142B2, “Combination therapy for the treatment of ovarian cancer” (Hoffmann-La Roche Inc., priority 2012, dated 2022):

B1: bevacizumab (antibody, V domains shown)
VH: EVQLVESGGGLVQPGGSLRLSCAASGYTFTNYGMNWVRQAPGKGLEWVGWINTYTGEPTYAADFKRRFTFSLDTSKSTAYLQMNSLRAEDTAVYYCAKYPHYYGSSHWYFDVWGQGTLVTVSS
VL: DIQMTQSPSSLSASVGDRVTITCSASQDISNYLNWYQQKPGKAPKVLIYFTSSLHSGVPSRFSGSGSGTDFTLTISSLQPEDFATYYCQQYSTVPWTFGQGTKVEIKR
modifications: amino acid sequence of humanized antibody variable heavy chain; amino acid sequence of humanized antibody variable light chain
notes: recombinant humanized anti-VEGF monoclonal antibody

Tested on: platinum-resistant ovarian cancer (epithelial ovarian, fallopian tube or primary peritoneal cancer)
Test: AURELIA Phase III trial, efficacy (PFS by RECIST, ORR)
Assay type: in vivo, human
Settings: for PFS Events, % / PFS Median, mo / ORR, %: by chemotherapy cohort; for ORR, %: overall response rate (RECIST and/or CA-125)
Text: The AURELIA trial evaluated the efficacy and safety of bevacizumab in combination with chemotherapy for platinum-resistant ovarian cancer. This study was designed as a prospective, open-label, randomised, two-arm Phase III evaluation of bevacizumab plus chemotherapy versus chemotherapy alone. To be eligible, patients must have ovarian cancer that progressed within 6 months of previous platinum-based therapy. Paclitaxel, topotecan or pegylated liposomal doxorubicin (PLD) was selected as chemotherapeutic combination partners since they are commonly used for treatment of platinum-resistant disease. By adding bevacizumab to chemotherapy, the AURELIA trial aimed to improve PFS for this group of patients who have limited therapeutic options and face a particularly poor prognosis. The primary objective was to compare progression-free survival (PFS) of patients randomised to selected chemotherapy only or to selected chemotherapy plus bevacizumab.
Study Design—This trial consisted of two (2) treatment arms: chemotherapy-alone (Arm 1) and chemotherapy plus bevacizumab (Arm 2). Patients were randomly assigned (1:1) to either arm, see FIG. 1.
Eligible patients received one of the following chemotherapies on a 4-week cycle at the discretion of the investigator: • a. Paclitaxel 80 mg/m^2 as a 1-hour i.v. infusion on days 1, 8, 15 and 22 q4w. • b. Topotecan 4 mg/m^2 as a 30 minute i.v. infusion on days 1, 8 and 15 q4w. Alternatively, a 1.25 mg/m^2 dose can be administered over 30 minutes on days 1-5 every three weeks. • c. Pegylated liposomal doxorubicin 40 mg/m^2 as a 1 mg/min i.v. infusion on day 1 only, q4w. After cycle 1, the drug can be delivered as a 1 h infusion.
The chemotherapy was selected from one of those described in Arm 1 at the discretion of the investigator. The chosen chemotherapy was initially combined with bevacizumab 10 mg/kg i.v. every two weeks (or 15 mg/kg every three weeks if used in combination with topotecan 1.25 mg/m^2 on days 1-5 of a every three weeks schedule). The initial bevacizumab infusion was over 90 minutes, with subsequent infusions over 60 minutes and then 30 minutes, as tolerated. Bevacizumab was administered before the chemotherapy at the first cycle and then administered prior or after the chemotherapy at subsequent cycles. In case chemotherapy was completed before diagnosis of progressive disease, patients continued to receive bevacizumab as either: (a) 10 mg/kg i.v. every two weeks; or (b) 15 mg/kg every three weeks if topotecan was selected and administered at a dose of 1.25 mg/m^2 on days 1-5 of a every three weeks schedule. After disease progression, patients received standard of care treatment.
Analyses of PFS and ORR was based on tumour assessments (based on RECIST criteria) using cross sectional imaging (preferably by CT or MRI in case of contrast allergy) of the pelvis and abdomen and (by X-ray or preferably by CT-scan) of the chest. The same assessment technique was used throughout the study to evaluate a particular lesion.
Tumour assessments were performed at baseline then every 8 weeks (every 9 weeks for patients treated with 1.25 mg/m^2 topotecan on days 1-5 of a every three weeks cycle). Responses were confirmed by a second CT scan performed not earlier than 4 weeks after the criteria for response were first met.
Progressive serial elevation of serum CA-125 were used to determine CA-125 response and biological progression-free interval (PFIbio). Overall survival was measured from the date of randomisation to the date of death from any cause.
Eligible patients had ovarian cancer (measurable by RECIST 1.0 or assessable) that had progressed ≤6 mo after ≥4 cycles of platinum-based therapy. Patients with refractory ovarian cancer, history of bowel obstruction or >2 prior anticancer regimens were ineligible. […]

Row | Molecule | PFS Events, % | PFS Median, mo | ORR, % | overall response rate (ORR) by RECIST, CA-125 or both (FIG. 3) (bevacizumab added to chemotherapy vs chemotherapy alone)
1 | CC[C@@]1(O)C(=O)OCc2c1cc1n(c2=O)Cc2cc3c(CN(C)C)c(O)ccc3nc2-1 [TOP CT, topotecan] | 89% | 2.1 mo | 3.3% | 
2 | CC(=O)O[C@H]1C(=O)[C@@]2(C)[C@H]([C@H](OC(=O)c3ccccc3)[C@]3(O)C[C@H](OC(=O)[C@H](O)[C@@H](NC(=O)c4ccccc4)c4ccccc4)C(C)=C1C3(C)C)[C@]1(OC(C)=O)CO[C@@H]1C[C@@H]2O [PAC CT, paclitaxel] | 89% | 3.9 mo | 28.8% | 
3 | B1 |  |  |  | increased the overall response rate (ORR)
